# Measured values from ChEMBL document CHEMBL3045128, “Borrelidin, a potent antifungal agent: insight into the antifungal mechanism against Phytophthora sojae” (J Agric Food Chem, 2012).
# Calls of active or inactive are those of the source. The calls are words filed in the database; no cut-off is given here.
# Columns and labels:
# Phytophthora sojae [1] = assay: Antifungal activity against Phytophthora sojae race 1 assessed as radial growth inhibition at 0.008 ug/ml incubated at 28 degC in the dark for 6 to 8 days in presence of 0.2 to 0.6 mM L-aspargine; assay type: functional, organism-based
# Pythium = assay: Antifungal activity against Pythium species; assay type: functional, organism-based
# [2] = target: T1, Threonyl-tRNA synthase (Phytophthora sojae) (UniProt G3FIN0); assay: Binding affinity to C-terminal His6-tagged Phytophthora sojae race 1 recombinant ThrRS expressed in Escherichia coli BL21 (Codonplus DE3) at 20 to 200 uM at 27 to 47 degC after 30 min by fluorescence quenching assay
# T1 sequence (whole entry): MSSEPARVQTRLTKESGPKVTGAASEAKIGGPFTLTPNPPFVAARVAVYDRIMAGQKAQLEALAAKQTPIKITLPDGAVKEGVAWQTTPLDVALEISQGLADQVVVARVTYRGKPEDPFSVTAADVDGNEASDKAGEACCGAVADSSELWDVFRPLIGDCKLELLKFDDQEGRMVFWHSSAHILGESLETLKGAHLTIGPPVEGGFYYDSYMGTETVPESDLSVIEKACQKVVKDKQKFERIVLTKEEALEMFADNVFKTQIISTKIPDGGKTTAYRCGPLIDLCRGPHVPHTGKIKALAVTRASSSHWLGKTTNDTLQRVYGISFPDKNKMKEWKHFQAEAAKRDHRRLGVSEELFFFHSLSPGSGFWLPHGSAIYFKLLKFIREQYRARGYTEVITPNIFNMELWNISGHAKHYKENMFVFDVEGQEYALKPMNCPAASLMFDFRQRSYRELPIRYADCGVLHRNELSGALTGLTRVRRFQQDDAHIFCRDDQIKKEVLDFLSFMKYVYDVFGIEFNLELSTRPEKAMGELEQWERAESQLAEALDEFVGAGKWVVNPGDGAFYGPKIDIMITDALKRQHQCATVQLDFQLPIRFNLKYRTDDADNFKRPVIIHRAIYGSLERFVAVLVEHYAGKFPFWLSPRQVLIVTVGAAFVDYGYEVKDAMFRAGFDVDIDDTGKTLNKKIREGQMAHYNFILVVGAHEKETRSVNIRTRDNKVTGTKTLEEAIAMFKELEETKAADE
# [3] = target: T1, Threonyl-tRNA synthase (Phytophthora sojae); assay: Binding affinity to C-terminal His6-tagged Phytophthora sojae race 1 recombinant ThrRS expressed in Escherichia coli BL21 (Codonplus DE3) assessed as decrease in beta sheet content of the protein at protein to compound ratio of 1:5 by CD spectroscopy (reference value: 25.6%); design: scale not given: the % may be the effect or the level left
# [4] = target: T1, Threonyl-tRNA synthase (Phytophthora sojae); assay: Binding affinity to C-terminal His6-tagged Phytophthora sojae race 1 recombinant ThrRS expressed in Escherichia coli BL21 (Codonplus DE3) assessed as quenching rate constant at 37 degC by fluorescence spectroscopy
# [5] = target: T1, Threonyl-tRNA synthase (Phytophthora sojae); assay: Binding affinity to C-terminal His6-tagged Phytophthora sojae race 1 recombinant ThrRS expressed in Escherichia coli BL21 (Codonplus DE3) assessed as equilibrium binding constant by fluorescence spectroscopy
# [6] = target: T1, Threonyl-tRNA synthase (Phytophthora sojae); assay: Binding affinity to C-terminal His6-tagged Phytophthora sojae race 1 recombinant ThrRS expressed in Escherichia coli BL21 (Codonplus DE3) assessed as Stern-Volmer quenching constant at 37 degC by fluorescence spectroscopy
# [7] = target: T1, Threonyl-tRNA synthase (Phytophthora sojae); assay: Binding affinity to C-terminal His6-tagged Phytophthora sojae race 1 recombinant ThrRS expressed in Escherichia coli BL21 (Codonplus DE3) assessed as increase in alpha helicity of the protein at protein to compound ratio of 1:5 by CD spectroscopy (reference value: 18.3%)
# [8] = target: T1, Threonyl-tRNA synthase (Phytophthora sojae); assay: Binding affinity to C-terminal His6-tagged Phytophthora sojae race 1 recombinant ThrRS expressed in Escherichia coli BL21 (Codonplus DE3) assessed as quenching rate constant at 27 degC by fluorescence spectroscopy
# [9] = target: T1, Threonyl-tRNA synthase (Phytophthora sojae); assay: Binding affinity to C-terminal His6-tagged Phytophthora sojae race 1 recombinant ThrRS expressed in Escherichia coli BL21 (Codonplus DE3) assessed as Stern-Volmer quenching constant at 47 degC by fluorescence spectroscopy
# [10] = target: T1, Threonyl-tRNA synthase (Phytophthora sojae); assay: Binding affinity to C-terminal His6-tagged Phytophthora sojae race 1 recombinant ThrRS expressed in Escherichia coli BL21 (Codonplus DE3) assessed as static fluorescence quenching by FRET analysis
# Phytophthora sojae [11] = assay: Antifungal activity against Phytophthora sojae race 1 assessed as radial growth inhibition at 0.008 ug/ml incubated at 28 degC in the dark for 6 to 8 days in presence of 0.2 to 0.6 mM tyrosine; assay type: functional, organism-based
# Phytophthora sojae [12] = assay: Antifungal activity against Phytophthora sojae race 1 assessed as radial growth inhibition at 0.008 ug/ml incubated at 28 degC in the dark for 6 to 8 days in presence of 0.2 to 0.6 mM glutamine; assay type: functional, organism-based
# [13] = target: T1, Threonyl-tRNA synthase (Phytophthora sojae); assay: Binding affinity to C-terminal His6-tagged Phytophthora sojae race 1 recombinant ThrRS expressed in Escherichia coli BL21 (Codonplus DE3) assessed as quenching rate constant at 47 degC by fluorescence spectroscopy
# [14] = target: T1, Threonyl-tRNA synthase (Phytophthora sojae); assay: Binding affinity to C-terminal His6-tagged Phytophthora sojae race 1 recombinant ThrRS expressed in Escherichia coli BL21 (Codonplus DE3) assessed as positive entropy and enthalpy changes by themodynamic analysis
# Phytophthora sojae [15] = assay: Antifungal activity against Phytophthora sojae race 1 assessed as radial growth inhibition at 0.008 ug/ml incubated at 28 degC in the dark for 6 to 8 days in presence of 0.2 to 0.6 mM alanine; assay type: functional, organism-based
# Phytophthora sojae [16] = assay: Antifungal activity against Phytophthora sojae race 1 assessed as radial growth inhibition at 0.006 ug/ml incubated at 28 degC in the dark for 6 to 8 days in presence of 0.6 mM threonine; assay type: functional, organism-based
# Threonyl-tRNA synthase = target: T2, Threonyl-tRNA synthase (Phytophthora sojae, UniProt G3FIN0); assay: Inhibition of C-terminal His6-tagged Phytophthora sojae race 1 recombinant ThrRS expressed in Escherichia coli BL21 (Codonplus DE3) assessed as reduction in initial velocity at the step of threonine activation preincubated for 10 min with 4 uM enzyme before threonine addition measured after 30 min by HPLC analysis
# T2 sequence (G3FIN0 whole entry): T1 sequence (whole entry)
# [17] = target: T1, Threonyl-tRNA synthase (Phytophthora sojae); assay: Binding affinity to C-terminal His6-tagged Phytophthora sojae race 1 recombinant ThrRS expressed in Escherichia coli BL21 (Codonplus DE3) assessed as Stern-Volmer quenching constant at 27 degC by fluorescence spectroscopy
# [18] = target: T1, Threonyl-tRNA synthase (Phytophthora sojae); assay: Binding affinity to C-terminal His6-tagged Phytophthora sojae race 1 recombinant ThrRS expressed in Escherichia coli BL21 (Codonplus DE3) assessed as decrease in beta sheet content of the protein at protein to compound ratio of 1:1 by CD spectroscopy (reference value: 25.6%); design: scale not given: the % may be the effect or the level left
# [19] = target: T1, Threonyl-tRNA synthase (Phytophthora sojae); assay: Binding affinity to C-terminal His6-tagged Phytophthora sojae race 1 recombinant ThrRS expressed in Escherichia coli BL21 (Codonplus DE3) assessed as increase in alpha helicity of the protein at protein to compound ratio of 1:1 by CD spectroscopy (reference value: 18.3%)
smiles,measurement,setting,value
C[C@@H]1C[C@H](C)C[C@H](C)[C@@H](O)CC(=O)O[C@H]([C@@H]2CCC[C@H]2C(=O)O)C/C=C/C=C(/C#N)[C@H](O)[C@@H](C)C1 [BORRELIDIN],growth inhibition (GI),Phytophthora sojae [1],Active
same,EC50,Pythium,0.01 µg/mL
same,Activity,[2],Active
same,Activity,[3],21.8%
same,Kq,[4],1.33 ×10¹² L/mol/s
same,KA,[5],2.55 ×10⁵ /M
same,KSV,[6],1.33 ×10⁴ /M
same,Activity,[7],25.7%
same,Kq,[8],1.54 ×10¹² L/mol/s
same,KSV,[9],1.23 ×10⁴ /M
same,Activity,[10],Active
same,growth inhibition (GI),Phytophthora sojae [11],Active
same,growth inhibition (GI),Phytophthora sojae [12],Active
same,Kq,[13],1.23 ×10¹² L/mol/s
same,Activity,[14],Active
same,growth inhibition (GI),Phytophthora sojae [15],Active
same,growth inhibition (GI),Phytophthora sojae [16],inactive
same,IC50,Threonyl-tRNA synthase,8 µM
same,Ki,Threonyl-tRNA synthase; read-out: Ki(app),10 µM
same,KSV,[17],1.54 ×10⁴ /M
same,Activity,[18],22.4%
same,Activity,[19],24.4%
